{
  "source": "ChEMBL document CHEMBL1145706",
  "about": "“Illudinic acid, a novel illudane sesquiterpene antibiotic” (J Nat Prod, 1997)",
  "key": {"P388": {"system": "P388", "experiment": "In vivo antitumor activity against mouse P388 cells assessed as increase in life span at 5 mg/kg, ip for 5 days", "assay_type": "functional"}, "[1]": {"experiment": "Antitumor activity against human myeloid leukemia cells xenografted mouse at 3 mg/kg, iv for 14 days", "assay_type": "functional, Leukemia cell"}, "L1210 [2]": {"system": "L1210", "experiment": "Cytotoxicity against mouse L1210 cells assessed as cell lysis after 24 hrs by trypan blue assay", "assay_type": "functional, cell-based"}, "L1210 [3]": {"system": "L1210", "experiment": "Cytotoxicity against mouse L1210 cells by MTT assay", "assay_type": "functional, cell-based"}, "Staphylococcus aureus [4]": {"system": "Staphylococcus aureus", "experiment": "Antimicrobial activity against methicillin-resistant Staphylococcus aureus COL MB5393", "assay_type": "functional, organism-based"}, "L1210 [5]": {"system": "L1210", "experiment": "Cytotoxicity against mouse L1210 cells assessed as cell viability by trypan blue assay", "assay_type": "functional, cell-based"}, "Pseudomonas aeruginosa": {"system": "Pseudomonas aeruginosa", "experiment": "Antimicrobial activity against Pseudomonas aeruginosa MB2824", "assay_type": "functional"}, "Proteus vulgaris": {"system": "Proteus vulgaris", "experiment": "Antimicrobial activity against Proteus vulgaris MB838", "assay_type": "functional"}, "Escherichia coli": {"system": "Escherichia coli", "experiment": "Antimicrobial activity against Escherichia coli MB1418", "assay_type": "functional"}, "Bacillus subtilis": {"system": "Bacillus subtilis", "experiment": "Antimicrobial activity against Bacillus subtilis MB964", "assay_type": "functional"}, "Enterococcus faecium": {"system": "Enterococcus faecium", "experiment": "Antimicrobial activity against Enterococcus faecium MB5572", "assay_type": "functional"}, "[6]": {"system": "Pectobacterium atrosepticum", "experiment": "Antimicrobial activity against Erwinia atroseptica MB1159", "assay_type": "functional"}, "Staphylococcus aureus [7]": {"system": "Staphylococcus aureus", "experiment": "Antimicrobial activity against Staphylococcus aureus MB108", "assay_type": "functional"}},
  "note": "Calls of active or inactive are those of the source. The calls are words filed in the database; no cut-off is given here.",
  "data": [
    {"smiles": "CC1=C2C(=C[C@@](C)(CO)[C@@H]2O)C(=O)[C@](C)(O)C12CC2", "values": [
      {"measurement": "Activity", "setting": "P388", "result": "inactive"}
    ]},
    {"smiles": "CC1=C2C(=O)C(C)(C)C=C2C(=O)[C@](C)(O)C12CC2", "note": "[DEHYDROILLUDIN M]", "values": [
      {"measurement": "Activity", "setting": "[1]", "result": 75, "unit": "%"}
    ]},
    {"smiles": "CC1=C2CC(C)(C)C=C2C(=O)[C@](C)(O)C12CC2", "note": "[DEOXYILLUDIN M]", "values": [
      {"measurement": "Activity", "setting": "P388; route intraperitoneal", "result": 24, "unit": "%"}
    ]},
    {"smiles": "COc1cccc2c1C(=O)c1c(O)c3c(c(O)c1C2=O)C[C@@](O)(C(=O)CO)C[C@@H]3O[C@H]1C[C@H](N)[C@H](O)[C@H](C)O1", "note": "[DOXORUBICIN]", "values": [
      {"measurement": "Activity", "setting": "L1210 [2]", "result": "inactive"},
      {"measurement": "IC50", "setting": "L1210 [3]", "result": 0.2, "unit": "µg/mL"},
      {"measurement": "IC50", "setting": "Staphylococcus aureus [4]", "result": 16, "unit": "µg/mL"},
      {"measurement": "IC50", "setting": "L1210 [5]", "result": "< 0.1", "unit": "µg/mL"}
    ]},
    {"smiles": "C=C1C(=O)C2=C(C[C@](C)(C(=O)O)C2)[C@](C)(O)C12CC2", "note": "[ILLUDINIC ACID]", "values": [
      {"measurement": "MIC", "setting": "Pseudomonas aeruginosa", "result": "> 125", "unit": "µg/mL"},
      {"measurement": "Activity", "setting": "L1210 [2]", "result": "inactive"},
      {"measurement": "IC50", "setting": "L1210 [3]", "result": 15, "unit": "µg/mL"},
      {"measurement": "MIC", "setting": "Proteus vulgaris", "result": "> 125", "unit": "µg/mL"},
      {"measurement": "MIC", "setting": "Escherichia coli", "result": 125, "unit": "µg/mL"},
      {"measurement": "MIC", "setting": "Staphylococcus aureus [4]", "result": 16, "unit": "µg/mL"},
      {"measurement": "MIC", "setting": "Bacillus subtilis", "result": 16, "unit": "µg/mL"},
      {"measurement": "IC50", "setting": "L1210 [5]", "result": 10, "unit": "µg/mL"},
      {"measurement": "MIC", "setting": "Enterococcus faecium", "result": "> 125", "unit": "µg/mL"},
      {"measurement": "MIC", "setting": "[6]", "result": "> 125", "unit": "µg/mL"},
      {"measurement": "MIC", "setting": "Staphylococcus aureus [7]", "result": 1, "unit": "µg/mL"}
    ]},
    {"smiles": "CN[C@H](CC(C)C)C(=O)N[C@H]1C(=O)N[C@@H](CC(N)=O)C(=O)N[C@H]2C(=O)N[C@H]3C(=O)N[C@H](C(=O)N[C@H](C(=O)O)c4cc(O)cc(O)c4-c4cc3ccc4O)[C@H](O)c3ccc(c(Cl)c3)Oc3cc2cc(c3O[C@@H]2O[C@H](CO)[C@@H](O)[C@H](O)[C@H]2O[C@H]2C[C@](C)(N)[C@H](O)[C@H](C)O2)Oc2ccc(cc2Cl)[C@H]1O", "note": "[VANCOMYCIN]", "values": [
      {"measurement": "Activity", "setting": "L1210 [2]", "result": "inactive"},
      {"measurement": "IC50", "setting": "L1210 [3]", "result": "> 1000", "unit": "µg/mL"},
      {"measurement": "IC50", "setting": "L1210 [5]", "result": "> 1000", "unit": "µg/mL"}
    ]}
  ]
}
